One assay relates to Ki67, Cyclin D1, BCL-2. The assay can be described thus: Immunohistochemistry of xenograft tumor sections. The format is in vivo, NSG mice. The protocol:
For histological analysis, tumor tissue was cut into […] sections, deparaffinized with xylene, and hydrated through graded ethanol. Endogenous peroxidase was blocked by incubation for 5 minutes in 3% H2O2. A 25-mM citrate buffer (pH 6.0) was used for antigen retrieval, cooked in a pressure cooker for 20 minutes, and left to cool for 30 minutes at room temperature. Slides were washed in Optimax (Pharmatrade) and incubated with primary Ab diluted in CAS-Block (Zymed Laboratories). For Ki67 1:100 (Thermo Scientific), for CXCR4 anti-human CXCR4 monoclonal antibody clone 12G5 1:100 (R&D), for CXCL12 monoclonal CXCL12 antibody 79018 (R&D), for BCL-2 monoclonal BCL-2 antibody clone 124 (cell marque) and for cyclinD1 monoclonal BCL-1 antibody clone sp4 (spring). Staining overnight at 4° C. For all stainings, a conjugated horseradish peroxidase secondary Ab anti mouse or anti rabbit (Envision; Dako) was used for 30 minutes and developing was done with diaminobenzidine for 5 minutes followed by counterstaining with hematoxylin. For ki67, BCL-2 and Cyclin D1, staining levels were quantified using the Image Pro Analyzer image analysis software.
(§1) Human SK-N-BE(2) cells were orthotopically injected into the left adrenal gland of 6-8 weeks old NSG mice. A 27-gauge needle was introduced through the left adrenal fat pad and 5×10∧5 cells/20 μl PBS were inoculated to the adrenal gland. NSG mice were maintained under defined flora conditions at the Hebrew University Pathogen-Free Animal Facility. Tumor growth and volume were monitored bi-weekly by using T2-weighted MRI until tumors reached the ethical limit volume and mice were randomized to drug-treated or control mice. Mice in the treated group were subjected to 2 treatment protocols. In the first treatment protocol BL-8040 (400 μg) was injected daily, starting three days following inoculation, and was continued for 35 days. In the second treatment protocol mice were monitored for 21 days. As of day 7, mice were treated with a daily injection of BL-8040 (400 μg) for 14 consecutive days.

For assay [1], the system named is miR-15a, miR-16-1, BCL-2, CCND1, c-myc in SK-N-BE(2) cells. The assay can be described thus: qPCR of treated cells in-vitro. The format is cell-based, human. The settings on record: 20 μM, 24 hours. The protocol:
(§2) Total RNA from various cell lines and mouse tissues was isolated using Trizol reagent (Invitrogen) according to the manufacture's protocol, followed by DNaseI treatment using the DNaseI Kit where needed (Ambion). The concentrations were measured by Nanodrop (ND spectrophotometer) and the integrity was analyzed by gel electrophoreses on 1% agarose gel.
(§3) cDNA was synthesized from 0.5-1 μg total RNA using the Quanta Biosciences qScript™ cDNA Synthesis Kit (95047-100) for mRNA analysis, and using the qScript™ microRNA cDNA Synthesis Kit (95107-100) for miRNAs analysis. Quantiative PCR (qPCR) of miRNAs and mRNA was performed using the CFX384, C1000 touch thermal cycler (Bio-Rad) and a SYBR Green PCR Kit: Quanta Cat. #84018 and #84071, respectively. The fold expression and statistical significance were calculated using the 2-ΔΔ Ct method. All experiments were performed in triplicate.

The test system of assay [2] is miR-15a, miR-16-1, BCL-2, CCND1, c-myc in Shy-SY5Y cells. The assay can be described thus: qPCR of treated cells in-vitro. The settings on record: 20 μM, 24 hours. The format is cell-based, human. The protocol:
as §2, §3

The next assay concerns Shy-SY5Y cells. In words: Soft agar colony assay. It is filed as cell-based, human. The settings on record: BL-8040 20 μM or anti-CXCR4 1 μg/ml, 14 days. The protocol:
(§4) An agar base layer was prepared as follows: 45 mL RPMI plus 12% FCS was mixed with 15 mL RPMI 32 plus 12% FCS and 15 mL 2.5% agar in double-distilled water. The tumor cells were suspended in RPMI plus 10% FCS. Cell suspension was mixed in a ratio of 1:3 with the agar base solution. This mixture was then plated on top of a preformed solid agar base. CXCL12 (100 ng/mL) or BL-8040 (20 μM) or anti-CXCR4 (1 μg/ml) were added to the mixture. Fourteen days later, the number of colonies was counted in 10 different fields.

The test system of a further assay is SK-N-BE(2) cells. In words: Soft agar colony assay. The format is cell-based, human. The conditions noted are these: BL-8040 20 μM or anti-CXCR4 1 μg/ml, 14 days. The protocol: as §4
For a further assay, the system named is miR-15a, DLEU2. The assay can be described thus: Gene expression array of xenograft tumors. It is filed as in vivo, NSG mice. The conditions noted are these: treated vs un-treated tumors.
Source text: RNA was isolated from tumors and subjected to gene expression profiling using GeneChip human Gene 1.0 ST Array (Affymetrix). The gene expression values were extracted using the Partek Genomics Suite 6.6 software and, after thresholding and filtering procedures, were submitted to fold change and cluster analyses (Gene Expression Omnibus [GEO] GSE94426).
as §1

The subject of assay [3] is SK-N-BE(2) orthotopic xenograft tumors. In words: In-vivo orthotopic NB model (tumor growth, weight, survival). Also noted: species or system NSG mice. The protocol:
as §1
Magnetic resonance imaging (MRI) scans were performed on a horizontal 4.7T Biospec spectrometer (Bruker Medical) with a 3.5-cm birdcage coil. Mice were anesthetized with Isoflurane (Nicholas Piramal, India; 2% in a mixture of 30:70 O2:N2O). Tumor volume was assessed bi-weekly using T2-weighted (T2W) fast spin echo images (repetition time=2,000 ms; echo time=37 ms; in plane resolution=117 μm; slice thickness-1 mm). Tumor volume was manually assessed using Analyze-7.0 (BIR). For each subject, an exponential growth curve was fitted to the tumor volume data points (Matlab software).
Data are presented as means±SD or ±SE. Statistical comparison of means was performed by a two-tailed unpaired Student's t test. Differences with a P<0.05 were determined as statistically significant. Statistical analysis of NB tumor mice survival following early treatment was performed using the Mantel-cox test.

Data on 1 substance can be found in patent US20200282009A1, “METHODS OF TREATING DISEASES ASSOCIATED WITH VASCULAR SMOOTH MUSCLE CELL PROLIFERATION” (BioLineRx Ltd., priority 2017, published 2020).

[ ]: non-standard residue; d: D form. The star is where a group is joined. Benzoyl(4-F) = O=C(c1ccc(F)cc1)*; Cit = NC(=O)NCCC[C@H](N)C(=O)O

Regarding “4F-benzoyl-Arg-Arg-Nal-Cys-Tyr-Cit-Lys-DLys-Pro-Tyr-Arg-Cit-Cys-Arg-NH2 ({Benzoyl(4-F)}-RR[Nal]CY[Cit]K[dK]PYR[Cit]CR-NH2; not fully specified; printed as 4F-benzoyl-Arg-Arg-Nal-Cys-Tyr-Cit-Lys-DLys-Pro-Tyr-Arg-Cit-Cys-Arg-NH2; cysteine pairing not given here) [BL-8040]”, the “Ki67 staining of tumor sections” value with Ki67, Cyclin D1, BCL-2 (400 μg daily for 14 days from day 7, compared to controls) was “reduced Ki67 staining”. Moreover, the “reduction in Cyclin D1 expression, tumor sections (IHC)” value in the assay on Ki67, Cyclin D1, BCL-2 (treated vs control sections, significant) came out at 56%. The “reduction in BCL-2 staining, tumor sections (IHC)” value in the assay on Ki67, Cyclin D1, BCL-2 (treated vs control, staining weak, difference not significant) is 36%. Moreover, in assay [1], the “BCL-2 mRNA (qPCR)” value is recorded as “reduced”, the “CCND1 mRNA (qPCR)” value is “reduced only in the Shy-SY5Y cells”, the “c-myc mRNA (qPCR)” value is on record as “reduced significantly” and the “miR-15a level (qPCR)” value is given as “significant increase”. In addition, in assay [1], the “miR-16-1 level (qPCR)” value is “not miR-16-1”. Further, in assay [2], the “BCL-2 mRNA (qPCR)” value was “reduced”, the “CCND1 mRNA (qPCR)” value is on record as “reduced only in the Shy-SY5Y cells”, the “c-myc mRNA (qPCR)” value is reported as “reduced significantly” and the “miR-15a level (qPCR)” value is on record as “significant increase”. The “miR-16-1 level (qPCR)” value in assay [2] is listed as “not miR-16-1”. The colony formation result in the assay with Shy-SY5Y cells is “reduces colony formation”. Also, the colony formation result in the assay with SK-N-BE(2) cells is recorded as “reduces colony formation”. Also, in the assay on miR-15a, DLEU2, the “expression of miR-15a and its parent gene DLEU2 (gene chip array)” value is given as “increased expression”. In assay [3] (400 μg s.c. daily for 14 days from day 7, harvested day 21), the “reduction in tumor weight” value was determined as 3 fold. Moreover, the “survival of animals, average” value in assay [3] (400 μg s.c. daily for 35 days from day 3, controls 35 days) was 61 days. Further, in assay [3] (400 μg s.c. daily for 35 days from day 3, exponential growth after discontinuation), the “tumor growth (tumor volume, MRI)” value was “tumor growth attenuation”.
